{
  "source": "patent US12697366B2",
  "about": "“Thermogenic compositions and methods” (Ohio State Innovation Foundation, priority 2016, dated 2026)",
  "key": {"DIO mice": {"tested_on": "DIO mice", "experiment": "Study 3 (Example 2): EREG injected into epididymal iAb fat of DIO mice", "assay_type": "in vivo, mouse", "protocol": "6-week old C57BL6/J male mice (WT) were fed a high fat diet (HF, 45% kcal from fat, D12451, Research Diet Inc., New Brunswick, NJ) for 30 days. Then mice were randomly assigned for • 1) a control group injected with 0.1 mL sterile phosphate buffered saline (PBS) into both epididymal iAb fat (n=7), and • 2) EREG-treated group injected with 20 ng EREG per epididymal iAb fat depot (n=7). Mice were injected with 0.1 mL sterile PBS, containing 200 ng EREG/mL. Mice were individually housed and pair fed when injection started. Mice were injected every other day for 2 weeks. Metabolic measurements were performed as described in 2.5. WAT were collected for protein, mRNA, and histology. Metabolic parameters in study 2.3 and 2.4 were measured by indirect calorimetry (CLAMS, Columbus Instruments, Columbus, OH) at ambient temperature (22° C.) with 12 h light/dark cycles. Animals were fed the same HF diet and water provided ad libitum. Mice were placed individually and allowed to acclimatize in the chambers for 12 h, and O2 consumption, CO2 production, energy expenditure, and locomotor activity were measured for 24 h. Then temperature was changed to 4° C. for 6 h. […] NanoString's nCounter analysis system performed direct detection of target molecules from a single sample using color-coded molecular barcodes, giving a digital quantification of the number of target molecules. A custom panel containing Ereg, thermogenic genes, and PPARα-target genes was designed and used for simultaneous quantification of 37 genes including housekeeping genes. All data were normalized to 3 housekeeping genes Gapdh, Pgk1, and Tubb quantified in the same samples using nSolver Software. Total mRNA (100 ng in 5 μl) was hybridized overnight with nCounter Reporter (20 μl) probes in hybridization buffer and in an excess of nCounter Capture probes (5 μL) at 65° C. for 16-20 h. The hybridization mixture containing target/probe complexes was allowed to bind to magnetic beads containing complementary sequences on the Capture Probe. After each target found a probe pair, excess probes were washed followed by sequential binding to sequences on the Reporter Probe. Biotinylated capture probe-bound samples were immobilized and recovered on a streptavidin-coated cartridge. The abundance of specific target molecules was then quantified using the nCounter Digital Analyzer. Individual fluorescent barcodes and target molecules present in each sample were recorded with a CCD camera by performing a high-density scan (600 fields of view). Images were processed internally into a digital format and were normalized using the NanoString nSolver software analysis tool. Counts were normalized for all target RNAs in all samples based on the positive control RNA to account for differences in hybridization efficiency and post-hybridization processing, purification, and immobilization of complexes. The average was normalized by background counts (the average of the eight negative control counts) for each sample. Subsequently, a normalization of mRNA content was performed based on Gapdh, Pgk1, and Tubb internal reference housekeeping genes. Plasma FFA and TG were measured in plasma samples from study 3, using kits from Wako Diagnostics (Mountain View, CA). Plasma samples were collected from mice in Study 3 and analyzed using a mouse leptin ELISA Kit (Alpco, Salem, NH) according to manufacturer's instruction. The absorbance (450 nm) was measured using Synergy H1 Hybrid Multi-Mode Microplate Reader. Insulin levels were measured in plasma from mice in Study 4 using an ultra-sensitive mouse insulin ELISA kit (Crystal Chem, Downers Grove, IL) according to manufacturer's instruction."}, "ob/ob mice": {"tested_on": "ob/ob mice", "experiment": "Study 4 (Example 2): EREG injected into epididymal iAb fat of ob/ob mice", "assay_type": "in vivo, mouse", "protocol": "6-week old Ob/Ob male mice, purchased from the Jackson laboratory (n=10), were fed a high fat diet (HF, 45% kcal from fat, D12451, Research Diet Inc., New Brunswick, NJ) for 30 days and then randomly assigned into two groups: • 1) a control group injected with 0.1 mL sterile PBS into both epididymal iAb fat (n=5), and • 2) EREG-treated group injected with 60 ng EREG per epididymal iAb fat depot (n=5). Mice were injected with 0.1 mL sterile PBS, containing 600 ng EREG/mL. These mice were pair fed and individually housed during injections. […] Metabolic measurements were performed as described in 2.5. WAT were collected for protein, mRNA, and histology. Metabolic parameters in study 2.3 and 2.4 were measured by indirect calorimetry (CLAMS, Columbus Instruments, Columbus, OH) at ambient temperature (22° C.) with 12 h light/dark cycles. Animals were fed the same HF diet and water provided ad libitum. Mice were placed individually and allowed to acclimatize in the chambers for 12 h, and O2 consumption, CO2 production, energy expenditure, and locomotor activity were measured for 24 h. Then temperature was changed to 4° C. for 6 h. […] GTT was performed in overnight fasted Ob/Ob mice (study 4, N=5 per group) by intraperitoneal injection of 0.004 mL 25% glucose/g body weight. One week after GTT, an ITT test was performed in same overnight fasted mice. They were injected with a single intraperitoneal insulin dose (1 mU of insulin/g body weight). Blood glucose was measured from mouse tails by One Touch Ultra glucometer (LifeScan, Wayne, PA)."}},
  "data": [
    {"substance": "EREG: Epiregulin, member of the epidermal growth factor family; recombinant mouse or human protein", "values": [
      {"measurement": "metabolic rate at ambient temperature and after cold exposure", "setting": "DIO mice; CLAMS", "result": "increase"},
      {"measurement": "body temperature in the abdominal area", "setting": "DIO mice; EREG 20 ng per depot every other day, 2 weeks, infrared camera", "result": "profound effects"},
      {"measurement": "weight gain", "setting": "DIO mice; HF diet", "result": "prevented"},
      {"measurement": "expression of PPARα target genes Mcat and Cpt2 in iAb fat", "setting": "DIO mice; NanoString", "result": "increased"},
      {"measurement": "expression of pro-inflammatory genes Tnfa and Mcp1 in iAb fat", "setting": "DIO mice; NanoString", "result": "suppressed"},
      {"measurement": "expression of thermogenic genes (Dio2, Pgc1a, Cidea, Rip140) and CoxIV in iAb fat", "setting": "DIO mice; NanoString", "result": "significantly increased"},
      {"measurement": "light and dark period activity", "setting": "DIO mice; before and after cold exposure", "result": "did not influence"},
      {"measurement": "Lep expression in iAb fat", "setting": "DIO mice; between groups", "result": "similar"},
      {"measurement": "levels of BAT marker Prdm16 in iAb fat", "setting": "DIO mice; between groups", "result": "similar"},
      {"measurement": "food consumption", "setting": "DIO mice; both groups", "result": "similar"},
      {"measurement": "decrease of circulating triglyceride levels", "setting": "DIO mice; compared to control group", "result": 48, "unit": "%"},
      {"measurement": "increase in Ucp1 and Pparg expression in iAb fat", "setting": "DIO mice; mouse, in vivo", "result": "did not reach statistical significance"},
      {"measurement": "less iAb fat than non-treated mice", "setting": "DIO mice; mouse, in vivo", "result": 32, "unit": "%"},
      {"measurement": "liver, BAT and subcutaneous WAT weight", "setting": "DIO mice; normalized to body weight", "result": "did not influence"},
      {"measurement": "levels of secreted LEP, higher than in non-treated mice", "setting": "DIO mice; plasma, ELISA", "result": 215, "unit": "%"},
      {"measurement": "RER", "setting": "DIO mice; treated vs non-treated", "result": "similar"},
      {"measurement": "increase in non-esterified fatty acid in the circulation", "setting": "DIO mice; vs control group", "result": 580, "unit": "%"},
      {"measurement": "time to maximal metabolic rate plateau during cold exposure", "setting": "DIO mice; vs control group", "result": "significantly shorter"},
      {"measurement": "RER during the light cycle", "setting": "ob/ob mice; EREG-treated vs control", "result": "significantly lower"},
      {"measurement": "activity after transition from ambient temperature to the cold", "setting": "ob/ob mice; EREG-treated vs control", "result": "higher"},
      {"measurement": "weight gain", "setting": "ob/ob mice; after 6 weeks of treatment with EREG", "result": "reduced"},
      {"measurement": "expression of PPARα target genes and mitochondrial genes in iAb fat", "setting": "ob/ob mice; between groups", "result": "similar"},
      {"measurement": "metabolic rate before and during cold exposure", "setting": "ob/ob mice; between groups", "result": "identical"},
      {"measurement": "response to insulin (ITT)", "setting": "ob/ob mice; between groups", "result": "similar"},
      {"measurement": "glucose tolerance (GTT)", "setting": "ob/ob mice; compared to non-treated group", "result": "markedly improved"},
      {"measurement": "weight of BAT, WAT depot and liver", "setting": "ob/ob mice; mouse, in vivo", "result": "not associated with significant changes"},
      {"measurement": "food intake", "setting": "ob/ob mice; pair-fed HF diet", "result": "identical"}
    ]}
  ]
}
